# How the values were obtained:
# [1] = Toxicity of treatment in tumor-bearing mice (body weight, blood cell count, appearance); assay type: in vivo; settings: three tumor models in mice, edema observed
# Procedure: (§1) The anti-tumor effects of aforementioned prodrugs are evaluated in both solid and liquid tumor models, including the B16-F10 murine melanoma, HTB177 human lung carcinoma models, DLD1 human colon carcinoma, EMT-6 murine mammary gland carcinoma, L1210 murine leukemia, lymphoma, prostate cancer, pancreatic cancer, and head-and-neck cancer. The prodrugs are given intravenously, orally, or intraperitoneally at doses from 10 mg/kg to 2000 mg/kg; they are give at different dosing schedules such as 4 times daily, once daily, or once every several days for up to 60 doses. Testing tumor cells were implanted subcutaneously into mice, which were randomized into groups immediately after tumor cell implantation (Day 0). Mice were injected intraperitoneally (ip) with either a bolus injection of 0.1 mL PBS or drug. The treatment was carried out in a designed dosing schedule. Tumor measurement in three dimensions was determined once a week with the formula L×H×W/2, where L, H, and W represent length, height, and width, respectively. The toxicity of these drugs in mice was mild as determined by body weight loss and animal appearance.
# Efficacies of KS119W and KS119 were compared with equivalence molar doses in EMT-6 tumor and H460 tumor models. KS119W was formulated with 0.25M sodium bicarbonate solution. The treatment was started when tumors researched 150 to 200 mm^3, and lasted up to 2 weeks. KS119 at doses of 80 and 100 mg/kg and KS119W at doses of 97.6 and 121.3 mg/kg were daily administrated into mice via ip injection. […] The toxicity of KS119 and KS119W were dose-dependent. To assess the toxicity of treatment, body weight and peripheral blood cell count were monitored after treatment.
# Combined therapy of KS119W with cytoxan (CTX) was evaluated by using KS119W at dose below the MTD in combination with nontoxic dose of CTX against EMT-6 murine mammary carcinoma and H460 human lung carcinoma in CD-1 nude mice. The tumors were allowed to grow to a size of approximately 200 mm^3. In H460 tumor model, the animals received either with 4 doses 180 mg/kg and 1 dose 240 mg/kg of […] or CTX at dose of 100 mg/kg per dose per animal, ip injecting the drugs on 15, 22, 27, 34 and 43 days after the tumor implantation. In the combination studies, CTX was given two hours after dosing KS119W. […] The inhibition of combination therapy was statistically significant against all control groups with p values of 0.003, 0.015 and 0.038, respectively. Additive toxicity at the doses used for combination was manageable; while the 180 mg/kg qw ×4 doses of KS119W alone caused a maximum net body weight loss of 4.5%, the same dose in combination with 4 doses of CTX at 100 mg/kg per week caused 8.6% weight loss but no death. A similar degree of growth inhibition was also observed with EMT-6 tumor model. […]
# [2] = Short term stability as a function of pH and citrate buffer (HPLC); assay type: physicochemical; settings: 20 mg/mL
# Procedure: The stabilities of VNP40541 were investigated. The sample (20 mg/mL) was dissolved in 20 mM citric acid and titrated to pH 2.0, pH 3.0, pH 4.0, pH 5.0, pH 6.0, and pH 7.0. To control for buffer catalysis, the drug was also titrated to pH 2.0, pH 5.0, and pH 6.0 in the absence of citrate. The samples were stored at 40° C. for 3 hours, 24 hours, and 3 days, and at room temperature for 24 hours, 3 days. Upon completion of each time point, samples were placed in a freezer at −15° C. Control samples of each preparation were also stored in the freezer. Each sample was analyzed by HPLC repetitively, at various time points, to determine the concentration of the respective drug.
# [3] = Maximum tolerated dose (MTD) finding; assay type: in vivo, mice
# Procedure: In order to fairly select a better compound from two enantiomers of KS119W for future clinical development, finding maximum tolerated dose (MTD) for VNP40541 (R-form) and VNP40551 (S-form) was conducted and the results were shown as Table 3.
# [4] = system: CHO-SCS-II (non-transfected parental line); assay: Aerobic/hypoxic cell survival, parental CHO cells; assay type: cell-based; settings: drug 10 μM
# Procedure: (§2) EMT6 or CHO (parental or human cytochrome P-450 reductase transfected) cells, seeded in glass milk dilution bottles, were gassed for 2 hours through a rubber septum fitted with 13 gauge (inflow) and 18 gauge (outflow) needles with a mixture of 5% CO2, oxygen at various concentrations, with the balance of the mixture made up of nitrogen, to establish various hypoxic conditions. Drugs were then injected without disrupting hypoxia. After two hours, cells were collected and plated in a clonogenic assay to determine the surviving fraction, compared to untreated controls.
# (§3) For in vitro analysis, KS119W must be converted to KS119OH (1) in an AP-catalyzed reaction shown above in FIG. 2, as the phosphorylated parent drug cannot cross cell membranes. KS119OH is then used in all subsequent in vitro studies shown in this section.
# (§4) Like KS119, cytochrome P-450 reductase can activate KS1190H under hypoxic conditions.
# [5] = system: SHP77 human lung carcinoma; assay: In vivo anti-tumor activity, SHP77 xenograft; set-up: species or system mice; settings: SHP77/Scid-Beige; dose VNP40541 110 mpk, VNP40551 85 mpk
# Procedure: as §1
# Efficacy of KS119 was studied in murine tumor model and human xenograft models. EMT-6 murine mammary carcinoma cells (3×10^5 cells/mouse) were implanted subcutaneously into Balb/c mice. […]
# [6] = system: CHO-450red (human cytochrome P-450 reductase transfected CHO cells); assay: Aerobic/hypoxic cell survival, cytochrome P-450 reductase transfected CHO cells; assay type: cell-based; settings: drug 10 μM
# Procedure: as §2, §3, §4
smiles,measurement,setting,value
C[C@@H](OC(=O)N(N(CCCl)S(C)(=O)=O)S(C)(=O)=O)c1ccc([N+](=O)[O-])c(OP(=O)(O)O)c1 [VNP40541],toxicity compared between the enantiomers,[1],"lower toxicity, particularly having less edema observed"
same,"Assay (HPLC, relative to control samples stored at −15° C.)","[2]; pH 2.0, citrate 20 mM, 3 hrs 40° C.",98.8%
same,"Assay (HPLC, relative to control samples stored at −15° C.)","[2]; pH 2.0, citrate 20 mM, 24 hrs 40° C.",92.3%
same,"Assay (HPLC, relative to control samples stored at −15° C.)","[2]; pH 2.0, citrate 20 mM, 24 hrs Room Temp.",99.3%
same,"Assay (HPLC, relative to control samples stored at −15° C.)","[2]; pH 2.0, citrate None, 3 hrs 40° C.",98.9%
same,"Assay (HPLC, relative to control samples stored at −15° C.)","[2]; pH 2.0, citrate None, 24 hrs 40° C.",91.7%
same,"Assay (HPLC, relative to control samples stored at −15° C.)","[2]; pH 2.0, citrate None, 24 hrs Room Temp.",99.4%
same,"Assay (HPLC, relative to control samples stored at −15° C.)","[2]; pH 3.0, citrate 20 mM, 3 hrs 40° C.",98.9%
same,"Assay (HPLC, relative to control samples stored at −15° C.)","[2]; pH 3.0, citrate 20 mM, 24 hrs 40° C.",91.3%
same,"Assay (HPLC, relative to control samples stored at −15° C.)","[2]; pH 3.0, citrate 20 mM, 24 hrs Room Temp.",99.3%
same,"Assay (HPLC, relative to control samples stored at −15° C.)","[2]; pH 4.0, citrate 20 mM, 3 hrs 40° C.",99.8%
same,"Assay (HPLC, relative to control samples stored at −15° C.)","[2]; pH 4.0, citrate 20 mM, 24 hrs 40° C.",92.2%
same,"Assay (HPLC, relative to control samples stored at −15° C.)","[2]; pH 4.0, citrate 20 mM, 24 hrs Room Temp.",100.1%
same,"Assay (HPLC, relative to control samples stored at −15° C.)","[2]; pH 5.0, citrate 20 mM, 3 hrs 40° C.",98.8%
same,"Assay (HPLC, relative to control samples stored at −15° C.)","[2]; pH 5.0, citrate 20 mM, 24 hrs 40° C.",92.2%
same,"Assay (HPLC, relative to control samples stored at −15° C.)","[2]; pH 5.0, citrate 20 mM, 24 hrs Room Temp.",99.4%
same,"Assay (HPLC, relative to control samples stored at −15° C.)","[2]; pH 5.0, citrate None, 3 hrs 40° C.",99.4%
same,"Assay (HPLC, relative to control samples stored at −15° C.)","[2]; pH 5.0, citrate None, 24 hrs 40° C.",92.5%
same,"Assay (HPLC, relative to control samples stored at −15° C.)","[2]; pH 5.0, citrate None, 24 hrs Room Temp.",99.7%
same,"Assay (HPLC, relative to control samples stored at −15° C.)","[2]; pH 6.0, citrate 20 mM, 3 hrs 40° C.",99.0%
same,"Assay (HPLC, relative to control samples stored at −15° C.)","[2]; pH 6.0, citrate 20 mM, 24 hrs 40° C.",93.8%
same,"Assay (HPLC, relative to control samples stored at −15° C.)","[2]; pH 6.0, citrate 20 mM, 24 hrs Room Temp.",98.6%
same,"Assay (HPLC, relative to control samples stored at −15° C.)","[2]; pH 6.0, citrate None, 3 hrs 40° C.",99.3%
same,"Assay (HPLC, relative to control samples stored at −15° C.)","[2]; pH 6.0, citrate None, 24 hrs 40° C.",93.8%
same,"Assay (HPLC, relative to control samples stored at −15° C.)","[2]; pH 6.0, citrate None, 24 hrs Room Temp.",100.0%
same,"Assay (HPLC, relative to control samples stored at −15° C.)","[2]; pH 7.0, citrate 20 mM, 3 hrs 40° C.",99.6%
same,"Assay (HPLC, relative to control samples stored at −15° C.)","[2]; pH 7.0, citrate 20 mM, 24 hrs 40° C.",94.0%
same,"Assay (HPLC, relative to control samples stored at −15° C.)","[2]; pH 7.0, citrate 20 mM, 24 hrs Room Temp.",99.7%
same,MTD,"[3]; BALB/c mice, × 5",100 mpk
same,MTD,"[3]; Nude CD-1 mice, × 10",140 mpk
same,MTD,"[3]; Scid/Beige mice, × 8",110 mpk
same,Surviving fraction at 0.1% oxygen,[4]; 0.1% oxygen,0.04737
same,Surviving fraction in air,[4]; air,1.086
same,Inhibition (%),[5],83%
same,Surviving fraction at 0.1% oxygen,[6]; 0.1% oxygen,0.001368
same,Surviving fraction in air,[6]; air,0.9277

# Source: patent publication US7405317B2, “Phosphate-bearing prodrugs of sulfonyl hydrazines as hypoxia-selective antineoplastic agents” (priority 2004, dated 2008)
